Assay results reported in US11649255B2, “Indazoles as hematopoietic progenitor kinase 1 (HPK1) inhibitors and methods using same” (1st Biotherapeutics, Inc., priority 2020, dated 2023).
Structures can show the parent of a compound that is named as a salt.

Target: recombinant human HPK1 (Homo sapiens (Human), UniProt Q92918)
Assay: HPK1 kinase assay (ADP-Glo)
Type: biochemical
Conditions: 25 μM ATP, MBP substrate
Procedure, shortened: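 Activity was read as ADP formed, detected by ADP-Glo luminescence after the reaction of 5 ng recombinant human HPK1 with MBP and ATP (stocks 0.5 μg/μl and 25 μM) for 40 min at 30 °C. Buffer was Tris pH 7.5 with MgCl2, BSA and DTT, with compound in 0.5% DMSO. IC50 came from inhibition curves.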

Chain of recombinant human HPK1 (Q92918 whole entry): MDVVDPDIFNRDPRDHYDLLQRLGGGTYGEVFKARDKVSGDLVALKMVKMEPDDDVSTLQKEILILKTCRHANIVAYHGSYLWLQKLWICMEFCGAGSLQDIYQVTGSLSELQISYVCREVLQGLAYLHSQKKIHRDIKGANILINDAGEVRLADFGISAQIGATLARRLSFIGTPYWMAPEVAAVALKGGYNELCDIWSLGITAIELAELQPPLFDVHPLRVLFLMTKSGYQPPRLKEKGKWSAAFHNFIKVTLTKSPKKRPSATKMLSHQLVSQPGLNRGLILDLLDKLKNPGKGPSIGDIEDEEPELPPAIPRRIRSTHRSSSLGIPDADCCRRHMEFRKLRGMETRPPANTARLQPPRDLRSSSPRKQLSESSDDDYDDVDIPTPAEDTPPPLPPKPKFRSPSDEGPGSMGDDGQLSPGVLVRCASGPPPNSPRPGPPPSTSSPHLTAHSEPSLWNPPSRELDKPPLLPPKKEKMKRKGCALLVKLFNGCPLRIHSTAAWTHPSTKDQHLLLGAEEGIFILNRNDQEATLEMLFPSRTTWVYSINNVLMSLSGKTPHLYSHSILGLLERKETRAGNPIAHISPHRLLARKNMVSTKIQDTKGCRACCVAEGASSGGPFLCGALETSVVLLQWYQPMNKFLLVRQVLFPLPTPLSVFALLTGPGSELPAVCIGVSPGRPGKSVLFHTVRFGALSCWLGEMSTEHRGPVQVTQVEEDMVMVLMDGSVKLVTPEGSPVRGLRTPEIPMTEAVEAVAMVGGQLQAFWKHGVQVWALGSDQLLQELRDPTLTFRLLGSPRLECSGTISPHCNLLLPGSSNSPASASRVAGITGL

IC50 [nM] | SMILES
< 100 | CSc1c(F)cc2[nH]ncc2c1-c1ccn2nc(NC(=O)[C@@H]3C[C@H]3F)cc2c1 [Example 572, (1S,2R)-2-fluoro-N-(5-(6-fluoro-5-(methylthio)-1H-indazol-4-yl)pyrazolo[1,5-a]pyridin-2-yl)cyclopropane-1-carboxamide]
> 1000 | Cc1ccc2[nH]ncc2c1-c1ccc2nc(NC(=O)c3ccccn3)sc2c1 [Example 12, N-(6-(5-methyl-1H-indazol-4-yl)benzo[d]thiazol-2-yl)picolinamide]
< 100 | CC(=S)Nc1c(F)c(Cl)c(-c2ccc3nc(NC(=O)[C@@H]4C[C@@H]4F)cn3c2)c2cn[nH]c12 [Example 411, (1S,2S)-N-(6-(5-chloro-7-ethanethioamido-6-fluoro-1H-indazol-4-yl)imidazo[1,2-a]pyridin-2-yl)-2-fluorocyclopropane-1-carboxamide]
< 100 | O=C(Nc1cc2cc(-c3c(C(F)(F)F)ccc4[nH]ncc34)ccn2n1)[C@@H]1C[C@@H]1F [Example 451, (1S,2S)-2-fluoro-N-(5-(5-(trifluoromethyl)-1H-indazol-4-yl)pyrazolo[1,5-a]pyridin-2-yl)cyclopropane-1-carboxamide]
< 100 | CSc1c(F)cc(-c2ccc3nc(NC(=O)[C@@H]4C[C@@H]4F)cn3c2)c2cn[nH]c12 [Example 342, (1S,2S)-2-fluoro-N-(6-(6-fluoro-7-(methylthio)-1H-indazol-4-yl)imidazo[1,2-a]pyridin-2-yl)cyclopropane-1-carboxamide]
< 100 | COC[C@@H](C)c1c(F)c(Cl)c(-c2ccc3nc(NC(=O)[C@@H]4C[C@@H]4F)cn3c2)c2cn[nH]c12 [Example 423, (1S,2S)-N-(6-(5-chloro-6-fluoro-7-((S)-1-methoxypropan-2-yl)-1H-indazol-4-yl)imidazo[1,2-a]pyridin-2-yl)-2-fluorocyclopropane-1-carboxamide]
< 100 | CC(=O)Nc1c(F)c(C)c(-c2ccc3nc(NC(=O)[C@@H]4C[C@@H]4F)sc3c2)c2cn[nH]c12 [Example 113, (1S,2S)-N-(6-(7-acetamido-6-fluoro-5-methyl-1H-indazol-4-yl)benzo[d]thiazol-2-yl)-2-fluorocyclopropane-1-carboxamide]
< 100 | CSc1c(F)c(Cl)c(-c2ccc3nc(NC(=O)[C@@H]4C[C@@H]4F)sc3c2)c2cn[nH]c12 [Example 58, (1S,2S)-N-(6-(5-chloro-6-fluoro-7-(methylthio)-1H-indazol-4-yl)benzo[d]thiazol-2-yl)-2-fluorocyclopropane-1-carboxamide]
< 100 | O=Cc1c(F)c(Cl)c(-c2ccn3nc(NC(=O)[C@@H]4C[C@@H]4F)cc3c2)c2cn[nH]c12 [Example 626, (1S,2S)-N-(5-(5-chloro-6-fluoro-7-formyl-1H-indazol-4-yl)pyrazolo[1,5-a]pyridin-2-yl)-2-fluorocyclopropane-1-carboxamide]
< 100 | Cc1c(F)cc2[nH]ncc2c1-c1ccc2nc(NC(=O)[C@@H]3C[C@@H]3F)sc2c1 [Example 40, (1S,2S)-2-fluoro-N-(6-(6-fluoro-5-methyl-1H-indazol-4-yl)benzo[d]thiazol-2-yl)cyclopropane-1-carboxamide]
< 100 | NC1CCCN(c2c(F)c(Cl)c(-c3ccc4nc(NC(=O)[C@@H]5C[C@@H]5F)sc4c3)c3cn[nH]c23)C1 (stereo partly drawn) [Example 84, (1S,2S)-N-(6-(7-(3-aminopiperidin-1-yl)-5-chloro-6-fluoro-1H-indazol-4-yl)benzo[d]thiazol-2-yl)-2-fluorocyclopropane-1-carboxamide]
< 100 | COC(C)(C)c1c(F)c(Cl)c(-c2ccc3nc(NC(=O)[C@@H]4C[C@@H]4F)cn3c2)c2cn[nH]c12 [Example 395, (1S,2S)-N-(6-(5-chloro-6-fluoro-7-(2-methoxypropan-2-yl)-1H-indazol-4-yl)imidazo[1,2-a]pyridin-2-yl)-2-fluorocyclopropane-1-carboxamide]
< 100 | CC(c1c(F)c(Cl)c(-c2ccc3nc(NC(=O)[C@@H]4C[C@@H]4F)cn3c2)c2cn[nH]c12)N(C)C (stereo partly drawn) [Example 396, (1S,2S)-N-(6-(5-chloro-7-(1-(dimethylamino)ethyl)-6-fluoro-1H-indazol-4-yl)imidazo[1,2-a]pyridin-2-yl)-2-fluorocyclopropane-1-carboxamide. Formaic acid salt]
< 100 | CNC(=O)N(C)c1c(F)c(Cl)c(-c2ccc3nc(NC(=O)[C@@H]4C[C@@H]4F)cn3c2)c2cn[nH]c12 [Example 435, (1S,2S)-N-(6-(5-chloro-7-(1,3-dimethylureido)-6-fluoro-1H-indazol-4-yl)imidazo[1,2-a]pyridin-2-yl)-2-fluorocyclopropane-1-carboxamide]
< 100 | CS(=O)(=O)c1c(F)c(Cl)c(-c2ccn3nc(NC(=O)[C@@H]4C[C@@H]4F)cc3c2)c2cn[nH]c12 [Example 486, (1S,2S)-N-(5-(5-chloro-6-fluoro-7-(methylsulfonyl)-1H-indazol-4-yl)pyrazolo[1,5-a]pyridin-2-yl)-2-fluorocyclopropane-1-carboxamide]
101 to 500 | CC(=O)c1c(F)c(C)c(-c2ccc3nc(NC(=O)[C@@H]4C[C@@H]4F)cn3c2)c2cn[nH]c12 [Example 322, (1S,2S)-N-(6-(7-acetyl-6-fluoro-5-methyl-1H-indazol-4-yl)imidazo[1,2-a]pyridin-2-yl)-2-fluorocyclopropane-1-carboxamide]
101 to 500 | Cc1c(F)c(S(C)(=O)=O)c2[nH]ncc2c1-c1ccc2nc(NC(=O)[C@@H]3C[C@@H]3F)cn2c1 [Example 302, (1S,2S)-2-fluoro-N-(6-(6-fluoro-5-methyl-7-(methylsulfonyl)-1H-indazol-4-yl)imidazo[1,2-a]pyridin-2-yl)cyclopropane-1-carboxamide]
< 100 | CC(=O)c1c(F)c(Cl)c(-c2ccn3nc(NC(=O)[C@@H]4C[C@@H]4F)cc3c2)c2cn[nH]c12 [Example 575, (1S,2S)-N-(5-(7-acetyl-5-chloro-6-fluoro-1H-indazol-4-yl)pyrazolo[1,5-a]pyridin-2-yl)-2-fluorocyclopropane-1-carboxamide]
< 100 | CC(NC1(C#N)CC1)c1c(F)c(Cl)c(-c2ccc3nc(NC(=O)[C@@H]4C[C@@H]4F)cn3c2)c2cn[nH]c12 (stereo partly drawn) [Example 429, (1S,2S)-N-(6-(5-chloro-7-(1-((1-cyanocyclopropyl)amino)ethyl)-6-fluoro-1H-indazol-4-yl)imidazo[1,2-a]pyridin-2-yl)-2-fluorocyclopropane-1-carboxamide]
101 to 500 | CC(=O)c1c(F)c(Cl)c(-c2ccc3nc(NC(=O)[C@@H]4C[C@@H]4F)sc3c2)c2cn[nH]c12 [Example 128, (1S,2S)-N-(6-(7-acetyl-5-chloro-6-fluoro-1H-indazol-4-yl)benzo[d]thiazol-2-yl)-2-fluorocyclopropane-1-carboxamide]
< 100 | CN(C)CCN(C)c1c(F)c(Cl)c(-c2ccc3nc(NC(=O)[C@@H]4C[C@@H]4F)sc3c2)c2cn[nH]c12 [Example 85, (1S,2S)-N-(6-(5-chloro-7-((2-(dimethylamino)ethyl)(methyl)amino)-6-fluoro-1H-indazol-4-yl)benzo[d]thiazol-2-yl)-2-fluorocyclopropane-1-carboxamide]
< 100 | CN(CC(F)(F)F)C(=O)c1c(F)c(Cl)c(-c2ccc3nc(NC(=O)[C@@H]4C[C@@H]4F)cn3c2)c2cn[nH]c12 [Example 347, 5-chloro-6-fluoro-4-(2-((1S,2S)-2-fluorocyclopropane-1-carboxamido)imidazo[1,2-a]pyridin-6-yl)-N-methyl-N-(2,2,2-trifluoroethyl)-1H-indazole-7-carboxamide]
< 100 | CNC1CCC(Nc2c(F)c(Cl)c(-c3ccn4nc(NC(=O)[C@@H]5C[C@@H]5F)cc4c3)c3cn[nH]c23)CC1 (stereo partly drawn) [Example 508, (1S,2S)-N-(5-(5-chloro-6-fluoro-7-((4-(methylamino)cyclohexyl)amino)-1H-indazol-4-yl)pyrazolo[1,5-a]pyridin-2-yl)-2-fluorocyclopropane-1-carboxamide]
< 100 | CCc1c(F)c(F)c2[nH]ncc2c1-c1ccc2nc(NC(=O)[C@@H]3C[C@@H]3F)sc2c1 [Example 106, (1S,2S)-N-(6-(5-ethyl-6,7-difluoro-1H-indazol-4-yl)benzo[d]thiazol-2-yl)-2-fluorocyclopropane-1-carboxamide]
< 100 | CCN(C)c1c(F)c(Cl)c(-c2ccc3nc(NC(=O)[C@@H]4C[C@@H]4F)cn3c2)c2cn[nH]c12 [Example 306, (1S,2S)-N-(6-(5-chloro-7-(ethyl(methyl)amino)-6-fluoro-1H-indazol-4-yl)imidazo[1,2-a]pyridin-2-yl)-2-fluorocyclopropane-1-carboxamide]
< 100 | CC(c1c(F)c(Cl)c(-c2ccc3nc(NC(=O)[C@@H]4C[C@@H]4F)cn3c2)c2cn[nH]c12)[S+](C)[O-] (stereo partly drawn) [Example 443, (1S,2S)-N-(6-(5-chloro-6-fluoro-7-(1-(methylsulflnyl)ethyl)-1H-indazol-4-yl)imidazo[1,2-a]pyridin-2-yl)-2-fluorocyclopropane-1-carboxamide]
< 100 | Cc1c(F)c(Cl)c2[nH]ncc2c1-c1ccc2nc(NC(=O)[C@@H]3C[C@@H]3F)cn2c1 [Example 260, (1S,2S)-N-(6-(7-chloro-6-fluoro-5-methyl-1H-indazol-4-yl)imidazo[1,2-a]pyridin-2-yl)-2-fluorocyclopropane-1-carboxamide]
> 1000 | C[S+]([O-])c1c(F)cc2[nH]ncc2c1-c1cc2sc(NC(=O)[C@@H]3C[C@@H]3F)nc2cn1 (stereo partly drawn) [Example 220, (1S,2S)-2-fluoro-N-(6-(6-fluoro-5-(methylsulfinyl)-1H-indazol-4-yl)thiazolo[4,5-c]pyridin-2-yl)cyclopropane-1-carboxamide]
101 to 500 | CNC(=O)c1c(F)c(C)c(-c2ccc3nc(NC(=O)[C@@H]4C[C@@H]4F)cn3c2)c2cn[nH]c12 [Example 338, 6-fluoro-4-(2-((1S,2S)-2-fluorocyclopropane-1-carboxamido)imidazo[1,2-a]pyridin-6-yl)-N,5-dimethyl-1H-indazole-7-carboxamide]
